Test results reported in ChEMBL document CHEMBL3351685, “Synthesis and quantitative structure-activity relationship (QSAR) analysis of some novel oxadiazolo[3,4-d]pyrimidine nucleosides derivatives as antiviral agents” (Bioorg Med Chem Lett, 2015).
Activity calls are given as the source filed them. No cut-off for these calls is given here.

Assays:
[1] = tested on: Vesicular stomatitis virus; assay: Antiviral activity against vesicular stomatitis virus infected in human WISH cells; format: functional; settings: for EC50: read-out: ED50 (the source's name)
WISH = assay: Cytotoxicity against human WISH cells; format: cell-based
[2] = Selectivity index, ratio of toxic concentration for human WISH cells to ED50 for vesicular stomatitis virus infected in human WISH cells; format: toxicity, cell-based; settings: read-out: Selectivity Index

Work on O=c1[nH]c(=O)n([C@@H]2O[C@H](COCc3ccccc3)[C@@H](OCc3ccccc3)[C@H]2OCc2ccccc2)c2no[n+]([O-])c12 yielded an EC50 [1] of 736 µM and an Activity (WISH) of 650 µmol/L.

With Cn1c(=O)c2c(no[n+]2[O-])n([C@@H]2O[C@H](COCc3ccccc3)[C@@H](OCc3ccccc3)[C@H]2OCc2ccccc2)c1=O the EC50 [1] was 473 µM and the Activity (WISH) was 1055 µmol/L.

With CC(=O)OC[C@H]1O[C@@H](n2c(=O)[nH]c(=O)c3c2no[n+]3[O-])[C@H](OC(C)=O)[C@@H](OC(C)=O)[C@@H]1OC(C)=O the ED50 [1] was “inactive” and the Activity (WISH) was 1300 µmol/L.

With CC(=O)OC[C@H]1O[C@H](n2c(=O)n(C)c(=O)c3c2no[n+]3[O-])[C@@H](OC(C)=O)[C@@H]1OC(C)=O the ED50 [1] was “inactive” and the Activity (WISH) was 378 µmol/L.

In the case of CCn1c(=O)c2c(no[n+]2[O-])n(COCCOC(C)=O)c1=O, the ED50 [1] is reported as “inactive” and the Activity (WISH) is reported as 408 µmol/L.

For O=c1[nH]c(=O)n(COCCO)c2no[n+]([O-])c12, the EC50 [1] was 636 µM and the Activity (WISH) was 2561 µmol/L.

CCn1c(=O)c2c(no[n+]2[O-])n([C@@H]2O[C@H](COC(C)=O)[C@H](OC(C)=O)[C@H]2OC(C)=O)c1=O showed an EC50 [1] of 1040 µM and an Activity (WISH) of 356 µmol/L.

For CC(=O)OC[C@H]1O[C@@H](n2c(=O)n(C)c(=O)c3c2no[n+]3[O-])[C@H](OC(C)=O)[C@H]1OC(C)=O, the ED50 [1] was “inactive” and the Activity (WISH) was 477 µmol/L.

In the case of CCn1c(=O)c2c(no[n+]2[O-])n(COC(COC(C)=O)COC(C)=O)c1=O, the EC50 [1] is reported as 651 µM and the Activity (WISH) is reported as 1475 µmol/L.

Molecule CCn1c(=O)c2c(no[n+]2[O-])n([C@@H]2O[C@H](COC(C)=O)[C@@H](OC(C)=O)[C@H](OC(C)=O)[C@H]2OC(C)=O)c1=O has an EC50 [1] of 1210 µM and an Activity (WISH) of 1345 µmol/L.

Cn1c(=O)c2c(no[n+]2[O-])n([C@@H]2O[C@H](COCc3ccccc3)[C@@H](OCc3ccccc3)[C@@H]2F)c1=O showed an EC50 [1] of 1500 µM and an Activity (WISH) of 10 µmol/L.

Molecule O=c1[nH]cnc2c1ncn2[C@H]1CC[C@@H](CO)O1 [DIDANOSINE] has an EC50 [1] of 792 µM, an Activity (WISH) of 2646 µmol/L and a selectivity ratio [2] of 3.34.

Work on CCn1c(=O)c2c(no[n+]2[O-])n([C@@H]2O[C@H](COC(C)=O)[C@@H](OC(C)=O)[C@H]2OC(C)=O)c1=O yielded an EC50 [1] of 1230 µM and an Activity (WISH) of 377 µmol/L.

CC(=O)OC[C@@H]1O[C@@H](n2c(=O)n(C)c(=O)c3c2no[n+]3[O-])[C@H](OC(C)=O)[C@H]1OC(C)=O showed an EC50 [1] of 135 µM and an Activity (WISH) of 300 µmol/L.

In the case of CC(=O)OC[C@H]1O[C@@H](n2c(=O)n(C)c(=O)c3c2no[n+]3[O-])[C@H](OC(C)=O)[C@@H]1OC(C)=O, the EC50 [1] is reported as 346 µM and the Activity (WISH) is reported as 1460 µmol/L.

Work on CC(=O)OC[C@H]1O[C@H](n2c(=O)[nH]c(=O)c3c2no[n+]3[O-])[C@@H](OC(C)=O)[C@@H]1OC(C)=O yielded an EC50 [1] of 691 µM and an Activity (WISH) of 398 µmol/L.

For CCn1c(=O)c2c(no[n+]2[O-])n([C@H]2O[C@H](COC(C)=O)[C@@H](OC(C)=O)[C@@H]2OC(C)=O)c1=O, the EC50 [1] was 574 µM and the Activity (WISH) was 1411 µmol/L.

With O=c1[nH]c(=O)n(COC(CO)CO)c2no[n+]([O-])c12 the EC50 [1] was 555 µM and the Activity (WISH) was 2279 µmol/L.

O=c1[nH]c(=O)n([C@@H]2O[C@H](CO)[C@@H](O)[C@H]2O)c2no[n+]([O-])c12 gave an EC50 [1] of 78 µM, an Activity (WISH) of 2095 µmol/L and a selectivity ratio [2] of 26.9.

In the case of CC(=O)OC[C@@H]1O[C@@H](n2c(=O)[nH]c(=O)c3c2no[n+]3[O-])[C@H](OC(C)=O)[C@H]1OC(C)=O, the EC50 [1] is reported as 154 µM and the Activity (WISH) is reported as 380 µmol/L.

Nc1nc2c(ncn2COCCO)c(=O)[nH]1 [ACYCLOVIR] gave an EC50 [1] of 1410 µM, an Activity (WISH) of 3414 µmol/L and a selectivity ratio [2] of 2.4.

Molecule CC(=O)OC[C@H]1O[C@@H](n2c(=O)[nH]c(=O)c3c2no[n+]3[O-])[C@H](OC(C)=O)[C@@H]1OC(C)=O has an EC50 [1] of 345 µM and an Activity (WISH) of 1459 µmol/L.

For CCn1c(=O)c2c(no[n+]2[O-])n([C@@H]2O[C@H](COCc3ccccc3)[C@@H](OCc3ccccc3)[C@H]2OCc2ccccc2)c1=O, the EC50 [1] was 498 µM and the Activity (WISH) was 1026 µmol/L.

In the case of CCn1c(=O)c2c(no[n+]2[O-])n([C@@H]2O[C@@H](COC(C)=O)[C@H](OC(C)=O)[C@H]2OC(C)=O)c1=O, the ED50 [1] is reported as “inactive” and the Activity (WISH) is reported as 20 µmol/L.

CC(=O)OCCOCn1c(=O)[nH]c(=O)c2c1no[n+]2[O-] gave an EC50 [1] of 651 µM and an Activity (WISH) of 2083 µmol/L.

In the case of CC(=O)OC[C@H]1O[C@@H](n2c(=O)[nH]c(=O)c3c2no[n+]3[O-])[C@H](OC(C)=O)[C@H]1OC(C)=O, the ED50 [1] is reported as “inactive” and the Activity (WISH) is reported as 387 µmol/L.

CC(=O)OCCOCn1c(=O)n(C)c(=O)c2c1no[n+]2[O-] gave an EC50 [1] of 650 µM and an Activity (WISH) of 2077 µmol/L.
